Data published in PMC12564639, “Discovery of a Novel Anticoagulant Cystine Knot Peptide from Spider Venom Gland Transcriptome” (International Journal of Molecular Sciences, 2025).
Peptide text beside a SMILES is read from it.

Columns and labels:
[1] = tested on: mouse red blood cells (RBCs); experiment: Hemolysis assay; type: cell-based; settings: 50 μM; RBCs 1 × 10^8/mL in PBS, 37 °C, 30 min; absorbance 450 nm; versus 1% Triton X-100; n = 3
Method: The hemolytic activity of GC38 was assessed using mouse red blood cells (RBCs). Fresh […] blood was centrifuged at 1500 rpm for 5 min to isolate RBCs, followed by three washes with sterile PBS and resuspension in PBS with a density of 1 × 10^8 RBCs/mL. GC38 was diluted in PBS to concentrations ranging from 3.125 to 50 μM. For the assay, 100 µL of the RBC suspension was mixed with an equal volume of GC38 solution and incubated at 37 °C for 30 min. After incubation, the samples were centrifuged at 1500 rpm for 5 min to pellet intact RBCs. The absorbance of the supernatant was measured at 450 nm using a multi-mode microplate reader (BioTek Synergy™ H1, Winooski, VT, USA). PBS and 1% Triton X-100-treated groups served as negative and positive controls, respectively. The percentage of hemolysis was calculated by comparing the absorbance values of the samples to those of the controls. All concentrations underwent triplicate testing, with results presented as mean ± SEM.

[2] = tested on: human keratinocytes (HaCaT); experiment: Cytotoxicity (CCK-8), HaCaT; type: cell-based; settings: 24 h, n = 3
Method: The cytotoxicity of GC38 was evaluated in human embryonic kidney cells (HEK293T), human keratinocytes (HaCaT), and murine macrophage (RAW264.7) cell lines. The cells were from Kunming Cell Bank, Chinese Academy of Sciences. HEK293T and HaCaT cells were cultured in DMEM supplemented with 10% fetal bovine serum (FBS) and 1% penicillin-streptomycin, and RAW264.7 cells were maintained in RPMI 1640 containing 10% FBS and 1% penicillin–streptomycin, with all cell lines incubated at 37 °C under 5% CO2. For cytotoxicity assessment, cells were seeded at a density of 1 × 10^5 cells per well in 96-well plates and incubated for 12 h. […] After 24 h incubation, cell viability was determined using the CCK-8 assay (10 μL/well). Absorbance was measured at 450 nm using a multi-mode microplate reader (BioTek Synergy™ H1, Winooski, VT, USA). Untreated cells and cells treated with 10% DMSO served as negative and positive controls, respectively. Viability percentages were calculated relative to the untreated control. All experiments were conducted in triplicate, and data were expressed as mean ± SEM.

[3] = tested on: stasis-induced deep vein thrombosis in mice; experiment: Stasis-induced deep vein thrombosis (DVT) model; type: in vivo, C57BL/6J mice
Method: The C57BL/6J mice (male, 6–8 weeks old) were purchased from Beijing Vital River Laboratory Animal Technology Co., Ltd. (Beijing, China). All animal studies were performed under the approval of the Ethics Committee of the Laboratory Animal Welfare of the Kunming Institute of Zoology, Chinese Academy of Sciences (IACUC-RE-2025-03-010).
Male C57BL/6J mice (6–8 weeks old, n = 10 per group) were randomized to receive intravenous injections of PBS (vehicle control), GC38 (2 or 4 mg/kg), or heparin sodium (1000 U/kg) for the establishment of stasis-induced DVT models. […] Briefly, mice were anesthetized, and the IVC was exposed through a midline abdominal incision. […] Finally, the abdominal wall was closed carefully. At 24 h post-ligation, the IVC was resected, and thrombus formation was quantified by measuring the weight of the thrombi (n = 5). HE staining analysis of thrombus sections was performed to evaluate the extent of thrombosis (n = 5).

## CSCC[C@@H]1NC(=O)[C@H](CC(N)=O)NC(=O)CNC(=O)CNC(=O)[C@H](Cc2c[nH]cn2)NC(=O)[C@H](CCCNC(=N)N)NC(=O)CNC(=O)[C@@H]2CSSC[C@@H]3NC(=O)[C@H](CCCNC(=N)N)NC(=O)[C@H](C)NC(=O)CNC(=O)[C@H](CCCCN)NC(=O)CNC(=O)[C@H](CO)NC(=O)[C@@H](NC(=O)CN)CSSC[C@H](NC(=O)[C@H](CSSC[C@@H](C(=O)N[C@@H](CCC(=O)O)C(=O)N[C@@H](Cc4c[nH]c5ccccc45)C(=O)N[C@@H](CC(N)=O)C(=O)N[C@@H](Cc4c[nH]c5ccccc45)C(=O)N[C@@H](CCCCN)C(=O)N[C@H](C(=O)NCC(=O)O)[C@@H](C)O)NC(=O)[C@H](CO)NC(=O)[C@H](CCCCN)NC(=O)[C@H](Cc4ccc(O)cc4)NC1=O)NC(=O)[C@H](CCCCN)NC(=O)[C@H](CO)NC(=O)[C@@H]1CCCN1C(=O)[C@H](C)NC3=O)C(=O)N[C@@H](CO)C(=O)NCC(=O)N[C@@H](CC(C)C)C(=O)N[C@@H](CO)C(=O)N2 [GC38] (HELM PEPTIDE1{G.C.S.G.K.G.A.R.C.A.P.S.K.C.C.S.G.L.S.C.G.R.H.G.G.N.M.Y.K.S.C.E.W.N.W.K.T.G}$PEPTIDE1,PEPTIDE1,2:R3-15:R3|PEPTIDE1,PEPTIDE1,9:R3-20:R3|PEPTIDE1,PEPTIDE1,14:R3-31:R3$$$V2.0)
[1]
  hemolytic activity: below 3%
[2]; 50 μM, serum-free medium, CCK-8, 450 nm, relative to untreated control
  cell viability HaCaT: greater than 95%
[2]; 0.1–50 μM, CCK-8
  cytotoxicity HaCaT: negligible cytotoxicity
[3]; GC38 4 mg/kg i.v., 24 h after IVC ligation, n = 5 per group
  reduction of thrombus wet weight versus vehicle control: 64.0%
[3]; HE staining, IVC sections, 24 h after ligation, n = 5
  thrombus area (histology): decrease in thrombus area
